{"source": "patent US11649255B2", "about": "“Indazoles as hematopoietic progenitor kinase 1 (HPK1) inhibitors and methods using same” (1st Biotherapeutics, Inc., priority 2020, dated 2023)", "note": "Counter-ions that a name gives are not always drawn."}
{"target": "recombinant human HPK1 (Homo sapiens (Human), UniProt Q92918)", "sequence (Q92918 whole entry)": "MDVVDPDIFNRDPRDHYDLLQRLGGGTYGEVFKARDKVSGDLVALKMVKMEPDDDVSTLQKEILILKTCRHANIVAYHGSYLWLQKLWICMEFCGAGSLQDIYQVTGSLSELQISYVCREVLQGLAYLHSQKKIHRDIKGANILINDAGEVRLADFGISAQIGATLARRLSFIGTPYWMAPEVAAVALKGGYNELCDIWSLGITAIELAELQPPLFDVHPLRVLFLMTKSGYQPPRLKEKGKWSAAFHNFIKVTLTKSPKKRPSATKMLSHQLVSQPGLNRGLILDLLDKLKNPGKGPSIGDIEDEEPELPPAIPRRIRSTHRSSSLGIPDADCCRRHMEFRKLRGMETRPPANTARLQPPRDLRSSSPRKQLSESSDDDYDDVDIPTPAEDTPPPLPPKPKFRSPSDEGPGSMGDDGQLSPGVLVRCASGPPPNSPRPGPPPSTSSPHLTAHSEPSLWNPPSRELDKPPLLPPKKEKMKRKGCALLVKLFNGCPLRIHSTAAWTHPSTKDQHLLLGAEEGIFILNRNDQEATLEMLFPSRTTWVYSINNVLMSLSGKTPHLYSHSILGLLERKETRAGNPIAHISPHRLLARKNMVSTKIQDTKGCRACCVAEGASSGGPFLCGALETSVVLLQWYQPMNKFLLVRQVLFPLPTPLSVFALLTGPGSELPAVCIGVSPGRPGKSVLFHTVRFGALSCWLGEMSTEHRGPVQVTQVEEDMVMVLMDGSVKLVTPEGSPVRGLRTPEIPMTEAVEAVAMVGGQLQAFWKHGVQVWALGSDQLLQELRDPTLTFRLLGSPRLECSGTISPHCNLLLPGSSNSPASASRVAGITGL", "experiment": "HPK1 kinase assay (ADP-Glo)", "assay_type": "biochemical", "details": "25 μM ATP, MBP substrate", "outline": "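Activity was read as ADP formed, detected by ADP-Glo luminescence after the reaction of 5 ng recombinant human HPK1 with MBP and ATP (stocks 0.5 μg/μl and 25 μM) for 40 min at 30 °C. Buffer was Tris pH 7.5 with MgCl2, BSA and DTT, with compound in 0.5% DMSO. IC50 came from inhibition curves.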", "units": {"IC50": "nM"}}
{"smiles": "CN(c1c(F)c(Cl)c(-c2ccn3nc(NC(=O)[C@@H]4C[C@@H]4F)cc3c2)c2cn[nH]c12)C1CCC(O)C1", "note": "(stereo partly drawn) [Example 555, (1S,2S)-N-(5-(5-chloro-6-fluoro-7-((3-hydroxycyclopentyl)(methyl)amino)-1H-indazol-4-yl)pyrazolo[1,5-a]pyridin-2-yl)-2-fluorocyclopropane-1-carboxamide]", "IC50": "< 100"}
{"smiles": "O=C(Nc1cn2cc(-c3c(Cl)c(F)c(CF)c4[nH]ncc34)ccc2n1)[C@@H]1C[C@@H]1F", "note": "[Example 363, (1S,2S)-N-(6-(5-chloro-6-fluoro-7-(fluoromethyl)-1H-indazol-4-yl)imidazo[1,2-a]pyridin-2-yl)-2-fluorocyclopropane-1-carboxamide]", "IC50": "< 100"}
{"smiles": "CSc1c(F)c(Cl)c(-c2ccc3nc(NC(=O)[C@@H]4C[C@@H]4F)sc3c2)c2cn[nH]c12", "note": "[Example 58, (1S,2S)-N-(6-(5-chloro-6-fluoro-7-(methylthio)-1H-indazol-4-yl)benzo[d]thiazol-2-yl)-2-fluorocyclopropane-1-carboxamide]", "IC50": "< 100"}
{"smiles": "CCN(C)c1c(F)c(Cl)c(-c2ccc3nc(NC(=O)[C@@H]4C[C@@H]4F)sc3c2)c2cn[nH]c12", "note": "[Example 133, (1S,2S)-N-(6-(5-chloro-7-(ethyl(methyl)amino)-6-fluoro-1H-indazol-4-yl)benzo[d]thiazol-2-yl)-2-fluorocyclopropane-1-carboxamide]", "IC50": "< 100"}
{"smiles": "Cc1ccc2[nH]nc(N)c2c1-c1ccc2nc(NC(=O)C3CC3)sc2c1", "note": "[Example 26, N-(6-(3-amino-5-methyl-1H-indazol-4-yl)benzo[d]thiazol-2-yl)cyclopropanecarboxamide]", "IC50": "> 1000"}
{"smiles": "Cc1ccc2[nH]ncc2c1-c1ccc2nc(NC(=O)C3CC(F)C3)sc2c1", "note": "[Example 7, (1R,3R)-3-fluoro-N-(6-(5-methyl-1H-indazol-4-yl)benzo[d]thiazol-2-yl)cyclobutane-1-carboxamide]", "IC50": "101 to 500"}
{"smiles": "O=C(Nc1nc2ccc(-c3c(C4CC4)ccc4[nH]ncc34)cc2s1)[C@@H]1C[C@@H]1F", "note": "[Example 37, (1S,2S)-N-(6-(5-cyclopropyl-1H-indazol-4-yl)benzo[d]thiazol-2-yl)-2-fluorocyclopropane-1-carboxamide]", "IC50": "101 to 500"}
{"smiles": "CN1CCN(c2c(F)c(Cl)c(-c3ccn4nc(NC(=O)[C@@H]5C[C@@H]5F)cc4c3)c3cn[nH]c23)CC1", "note": "[Example 495, (1S,2S)-N-(5-(5-chloro-6-fluoro-7-(4-methylpiperazin-1-yl)-1H-indazol-4-yl)pyrazolo[1,5-a]pyridin-2-yl)-2-fluorocyclopropane-1-carboxamide]", "IC50": "< 100"}
{"smiles": "CCc1c(F)cc2[nH]ncc2c1-c1ccc2nc(NC(=O)C3CC3)cn2c1", "note": "[Example 248, N-(6-(5-ethyl-6-fluoro-1H-indazol-4-yl)imidazo[1,2-a]pyridin-2-yl)cyclopropanecarboxamide]", "IC50": "< 100"}
{"smiles": "CC(c1c(F)c(Cl)c(-c2ccc3nc(NC(=O)[C@@H]4C[C@@H]4F)cn3c2)c2cn[nH]c12)N(C)C", "note": "(stereo partly drawn) [Example 396, (1S,2S)-N-(6-(5-chloro-7-(1-(dimethylamino)ethyl)-6-fluoro-1H-indazol-4-yl)imidazo[1,2-a]pyridin-2-yl)-2-fluorocyclopropane-1-carboxamide. Formaic acid salt]", "IC50": "< 100"}
{"smiles": "CSc1c(F)c(C)c(-c2ccc3nc(NC(=O)[C@@H]4C[C@@H]4F)cn3c2)c2cn[nH]c12", "note": "[Example 269, (1S,2S)-2-fluoro-N-(6-(6-fluoro-5-methyl-7-(methylthio)-1H-indazol-4-yl)imidazo[1,2-a]pyridin-2-yl)cyclopropane-1-carboxamide]", "IC50": "< 100"}
{"smiles": "Cc1c(F)cc2[nH]nc(C)c2c1-c1ccn2nc(NC(=O)[C@@H]3C[C@@H]3F)cc2c1", "note": "[Example 470, (1S,2S)-2-fluoro-N-(5-(6-fluoro-3,5-dimethyl-1H-indazol-4-yl)pyrazolo[1,5-a]pyridin-2-yl)cyclopropane-1-carboxamide]", "IC50": "101 to 500"}
{"smiles": "Cc1c(F)c(Cl)c2[nH]ncc2c1-c1ccc2nc(NC(=O)[C@@H]3C[C@@H]3F)sc2c1", "note": "[Example 51, (1S,2S)-N-(6-(7-chloro-6-fluoro-5-methyl-1H-indazol-4-yl)benzo[d]thiazol-2-yl)-2-fluorocyclopropane-1-carboxamide]", "IC50": "< 100"}
{"smiles": "CN(CC#N)C(=O)c1c(F)c(Cl)c(-c2ccn3nc(NC(=O)[C@@H]4C[C@@H]4F)cc3c2)c2cn[nH]c12", "note": "[Example 612, 5-chloro-N-(cyanomethyl)-6-fluoro-4-(2-((1S,2S)-2-fluorocyclopropane-1-carboxamido)pyrazolo[1,5-a]pyridin-5-yl)-N-methyl-1H-indazole-7-carboxamide]", "IC50": "< 100"}
{"smiles": "Cc1c(F)c(C(=O)O)c2[nH]ncc2c1-c1ccc2nc(NC(=O)[C@@H]3C[C@@H]3F)sc2c1", "note": "[Example 124, 6-fluoro-4-(2-((1S,2S)-2-fluorocyclopropane-1-carboxamido)benzo[d]thiazol-6-yl)-5-methyl-1H-indazole-7-carboxylic acid]", "IC50": "> 1000"}
{"smiles": "Cc1noc(-c2c(F)c(Cl)c(-c3ccc4nc(NC(=O)[C@@H]5C[C@@H]5F)cn4c3)c3cn[nH]c23)n1", "note": "[Example 364, (1S,2S)-N-(6-(5-chloro-6-fluoro-7-(3-methyl-1,2,4-oxadiazol-5-yl)-1H-indazol-4-yl)imidazo[1,2-a]pyridin-2-yl)-2-fluorocyclopropane-1-carboxamide]", "IC50": "< 100"}
{"smiles": "C=Cc1c(F)cc2[nH]ncc2c1-c1ccc2nc(NC(=O)C3CC3)cn2c1", "note": "[Example 235, N-(6-(6-fluoro-5-vinyl-1H-indazol-4-yl)imidazo[1,2-a]pyridin-2-yl)cyclopropanecarboxamide]", "IC50": "< 100"}
{"smiles": "Cc1c(F)c(OCCOC(N)=O)c2[nH]ncc2c1-c1ccn2nc(NC(=O)[C@@H]3C[C@@H]3F)cc2c1", "note": "[Example 535, 2-((6-fluoro-4-(2-((1S,2S)-2-fluorocyclopropane-1-carboxamido)pyrazolo[1,5-a]pyridin-5-yl)-5-methyl-1H-indazol-7-yl)oxy)ethyl carbamate]", "IC50": "< 100"}
{"smiles": "O=C(Nc1nc2ccc(-c3c(Cl)ccc4[nH]ncc34)cc2s1)C1CC1", "note": "[Example 16, N-(6-(5-chloro-1H-indazol-4-yl)benzo[d]thiazol-2-yl)cyclopropanecarboxamide]", "IC50": "101 to 500"}
{"smiles": "CC(C#N)Nc1c(F)c(Cl)c(-c2ccc3nc(NC(=O)[C@@H]4C[C@@H]4F)cn3c2)c2cn[nH]c12", "note": "(stereo partly drawn) [Example 371, (1S,2S)-N-(6-(5-chloro-7-((1-cyanoethyl)amino)-6-fluoro-1H-indazol-4-yl)imidazo[1,2-a]pyridin-2-yl)-2-fluorocyclopropane-1-carboxamide]", "IC50": "< 100"}
{"smiles": "C=C(C)c1c(F)c(Cl)c(-c2ccn3nc(NC(=O)[C@@H]4C[C@@H]4F)cc3c2)c2cn[nH]c12", "note": "[Example 639, (1S,2S)-N-(5-(5-chloro-6-fluoro-7-(prop-1-en-2-yl)-1H-indazol-4-yl)pyrazolo[1,5-a]pyridin-2-yl)-2-fluorocyclopropane-1-carboxamide]", "IC50": "< 100"}
{"smiles": "CNC(=O)NCCOc1c(F)c(C)c(-c2ccn3nc(NC(=O)[C@@H]4C[C@@H]4F)cc3c2)c2cn[nH]c12", "note": "[Example 545, (1S,2S)-2-fluoro-N-(5-(6-fluoro-5-methyl-7-(2-(3-methylureido)ethoxy)-1H-indazol-4-yl)pyrazolo[1,5-a]pyridin-2-yl)cyclopropane-1-carboxamide]", "IC50": "< 100"}
{"smiles": "COCCOc1ccc2[nH]ncc2c1-c1ccc2nc(NC(=O)[C@@H]3C[C@@H]3F)sc2c1", "note": "[Example 34, (1S,2S)-2-fluoro-N-(6-(5-(2-methoxyethoxy)-1H-indazol-4-yl)benzo[d]thiazol-2-yl)cyclopropane-1-carboxamide]", "IC50": "> 1000"}
{"smiles": "CCOCc1c(F)c(Cl)c(-c2ccc3nc(NC(=O)[C@@H]4C[C@@H]4F)cn3c2)c2cn[nH]c12", "note": "[Example 391, (1S,2S)-N-(6-(5-chloro-7-(ethoxymethyl)-6-fluoro-1H-indazol-4-yl)imidazo[1,2-a]pyridin-2-yl)-2-fluorocyclopropane-1-carboxamide]", "IC50": "< 100"}
{"smiles": "CC(c1c(F)c(Cl)c(-c2ccc3nc(NC(=O)[C@@H]4C[C@@H]4F)cn3c2)c2cn[nH]c12)[S+](C)[O-]", "note": "(stereo partly drawn) [Example 443, (1S,2S)-N-(6-(5-chloro-6-fluoro-7-(1-(methylsulflnyl)ethyl)-1H-indazol-4-yl)imidazo[1,2-a]pyridin-2-yl)-2-fluorocyclopropane-1-carboxamide]", "IC50": "< 100"}
{"smiles": "CNCCN(C)c1c(F)c(Cl)c(-c2ccc3nc(NC(=O)[C@@H]4C[C@@H]4F)sc3c2)c2cn[nH]c12", "note": "[Example 92, (1S,2S)-N-(6-(5-chloro-6-fluoro-7-(methyl(2-(methylamino)ethyl)amino)-1H-indazol-4-yl)benzo[d]thiazol-2-yl)-2-fluorocyclopropane-1-carboxamide]", "IC50": "< 100"}
{"smiles": "CC(NC1COC1)c1c(F)c(Cl)c(-c2ccc3nc(NC(=O)[C@@H]4C[C@@H]4F)cn3c2)c2cn[nH]c12", "note": "(stereo partly drawn) [Example 427, (1S,2S)-N-(6-(5-chloro-6-fluoro-7-(1-(oxetan-3-ylamino)ethyl)-1H-indazol-4-yl)imidazo[1,2-a]pyridin-2-yl)-2-fluorocyclopropane-1-carboxamide]", "IC50": "< 100"}
{"smiles": "O=C(Nc1cn2cc(-c3c(C(F)(F)F)ccc4[nH]ncc34)ccc2n1)[C@@H]1C[C@@H]1F", "note": "[Example 236, (1S,2S)-2-fluoro-N-(6-(5-(trifluoromethyl)-1H-indazol-4-yl)imidazo[1,2-a]pyridin-2-yl)cyclopropane-1-carboxamide]", "IC50": "< 100"}
{"smiles": "Cn1nnnc1-c1c(F)c(Cl)c(-c2ccn3nc(NC(=O)[C@@H]4C[C@@H]4F)cc3c2)c2cn[nH]c12", "note": "[Example 594, (1S,2S)-N-(5-(5-chloro-6-fluoro-7-(1-methyl-1H-tetrazol-5-yl)-1H-indazol-4-yl)pyrazolo[1,5-a]pyridin-2-yl)-2-fluorocyclopropane-1-carboxamide]", "IC50": "< 100"}
{"smiles": "O=C(Nc1nc2ccc(-c3c(Cn4cccn4)ccc4[nH]ncc34)cc2s1)[C@@H]1C[C@@H]1F", "note": "[Example 38, (1S,2S)-N-(6-(5-((1H-pyrazol-1-yl)methyl)-1H-indazol-4-yl)benzo[d]thiazol-2-yl)-2-fluorocyclopropane-1-carboxamide]", "IC50": "> 1000"}
